In patent US7579369B2, “CB 1 receptor inverse agonists” (Hoffmann-La Roche Inc., priority 2003, dated 2009) one finds IC50 data, which are given here for 15 compounds.

The target of the experiment is T1, human cannabis CB1 receptor (Homo sapiens, UniProt P21554).
T1 construct: expressed in transfected cells; host or cells: human embryonic kidney (HEK) cells, Semliki Forest Virus system, membrane preparation
Briefly: Affinity for cannabinoid CB1 receptors, [3H]-CP-55,940 radioligand binding on HEK cell membranes. Conditions: affinity for the CB1 receptor. The method, then:
The affinity of the compounds of the invention for cannabinoid CB1 receptors was determined using membrane preparations of human embryonic kidney (HEK) cells in which the human cannabis CB1 receptor is transiently transfected using the Semliki Forest Virus system in conjunction with [3H]-CP-55,940 as radioligand. After incubation of a freshly prepared cell membrane preparation with the [3H]-ligand, with or without addition of compounds of the invention, separation of bound and free ligand was performed by filtration over glassfiber filters. Radioactivity on the filter was measured by liquid scintillation counting.
The compounds of formula (I) show an excellent affinity for the CB1 receptor, determined with the experimental conditions described in Devane et. al. Mol. Pharmacol. 34 (1988) 605-613.

T1 sequence (P21554 whole entry): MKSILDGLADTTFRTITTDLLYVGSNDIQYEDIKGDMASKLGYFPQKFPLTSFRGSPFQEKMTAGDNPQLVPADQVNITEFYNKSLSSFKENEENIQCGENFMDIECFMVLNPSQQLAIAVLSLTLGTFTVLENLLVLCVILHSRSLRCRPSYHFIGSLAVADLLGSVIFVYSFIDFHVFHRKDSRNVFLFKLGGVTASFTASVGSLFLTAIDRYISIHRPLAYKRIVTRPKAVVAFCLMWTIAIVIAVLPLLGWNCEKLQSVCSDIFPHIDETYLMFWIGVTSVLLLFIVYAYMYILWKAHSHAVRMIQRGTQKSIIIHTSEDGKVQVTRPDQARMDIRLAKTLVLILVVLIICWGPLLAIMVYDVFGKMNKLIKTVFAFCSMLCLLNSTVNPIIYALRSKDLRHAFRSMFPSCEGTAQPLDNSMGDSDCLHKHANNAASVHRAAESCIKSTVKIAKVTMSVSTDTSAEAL

For the compound `Cc1c(C(=O)NC2CCCCC2)cc(-c2cc(C(F)(F)F)ccc2F)n1C[C@@H]1CCCC[C@H]1O` (racemic) [Example 282, 5-(2-Fluoro-5-trifluoromethyl-phenyl)-1-((1SR,2RS)-2-hydroxy-cyclohexylmethyl)-2-methyl-1H-pyrrole-3-carboxylic acid cyclohexylamide], the IC50 (in general, the concentration that gives 50% inhibition) was under 2000 nM. As for `Cc1c(C(=O)NC2CCCCC2)cc(-c2cc(C(F)(F)F)ccc2F)n1C[C@H]1CCCC[C@H]1O` (racemic) [Example 283, 5-(2-Fluoro-5-trifluoromethyl-phenyl)-1-((1RS,2RS)-2-hydroxy-cyclohexylmethyl)-2-methyl-1H-pyrrole-3-carboxylic acid cyclohexylamide], the figure is under 2000 nM. As to `Cc1c(C(=O)N[C@@H]2CCCC[C@H]2O)cc(-c2cc(C(F)(F)F)ccc2F)n1CC1CCCCC1O` (mixture of isomers) [Example 286], the IC50 was under 2000 nM. In turn, `Cc1c(C(=O)NC2CCCCC2)cc(-c2cc(C(F)(F)F)ccc2Cl)n1C[C@H]1CCCC[C@H]1O` (racemic) [Example 294, 5-(2-Chloro-5-trifluoromethyl-phenyl)-1-((1RS,2RS)-2-hydroxy-cyclohexylmethyl)-2-methyl-1H-pyrrole-3-carboxylic acid cyclohexylamide] registered an IC50 of under 2000 nM. Compound `CCCCNC(=O)c1cc(-c2ccc(N3CCCC3)cc2)n(CC2CCCCC2)c1C` [Example 19, Cyclohexylmethyl-2-methyl-5-(4-pyrrolidin-1-yl-phenyl)-1H-pyrrole-3-carboxylic acid butylamide] gave an IC50 of under 2000 nM.

Compound `CCCCNC(=O)c1cc(-c2cc(OC)ccc2OC)n(CC2CCCCC2)c1C` [Example 21, Cyclohexylmethyl-5-(2,5-dimethoxy-phenyl)-2-methyl-1H-pyrrole-3-carboxylic acid butylamide] returned an IC50 of under 2000 nM. The figure for `CCCCNC(=O)c1cc(-c2cc(C(F)(F)F)cc(C(F)(F)F)c2)n(CC2CCCCC2)c1C` [Example 41, 5-(3,5-Bis-trifluoromethyl-phenyl)-1-cyclohexylmethyl-2-methyl-1H-pyrrole-3-carboxylic acid butylamide] is under 2000 nM; for `CCCCNC(=O)c1nc(-c2ccccc2OC)n(CC2CCCCC2)c1C` [Example 52, Cyclohexylmethyl-2-(2-methoxy-phenyl)-5-methyl-1H-imidazole-4-carboxylic acid butylamide] it is under 2000 nM. Take `COc1ccccc1-c1nc(C(=O)NN2CCCCC2)c(C)n1CC1CCCCC1` [Example 54, Cyclohexylmethyl-2-(2-methoxy-phenyl)-5-methyl-1H-imidazole-4-carboxylic acid piperidin-1-ylamide]: the IC50 was under 2000 nM.

For `COc1ccc(Cl)cc1-c1cc(C(=O)NC2CCCCC2)c(C)n1CC1CCCCC1` [Example 89, 5-(5-Chloro-2-methoxy-phenyl)-1-cyclohexylmethyl-2-methyl-1H-pyrrole-3-carboxylic acid cyclohexylamide], the IC50 is under 2000 nM. `COc1cc(C)c(Cl)cc1-c1cc(C(=O)NC2CCCCC2)c(C)n1CC1CCCCC1` [Example 91, 5-(5-Chloro-2-methoxy-4-methyl-phenyl)-1-cyclohexylmethyl-2-methyl-1H-pyrrole-3-carboxylic acid cyclohexylamide] showed an IC50 of under 2000 nM. Regarding `COc1ccc(F)cc1-c1cc(C(=O)NC2CCCCC2)c(C)n1CC1CC1` [Example 194, Cyclopropylmethyl-5-(5-fluoro-2-methoxy-phenyl)-2-methyl-1H-pyrrole-3-carboxylic acid cyclohexylamide], the IC50 is under 2000 nM. As for `Cc1c(C(=O)NN2CCCCC2)cc(-c2cc(C(F)(F)F)ccc2Cl)n1CC1CCCCC1` [Example 264, 5-(2-Chloro-5-trifluoromethyl-phenyl)-1-cyclohexylmethyl-2-methyl-1H-pyrrole-3-carboxylic acid piperidin-1-ylamide], the figure is under 2000 nM. The compound `Cc1c(C(=O)N[C@@H]2CCCC[C@H]2O)cc(-c2cc(C(F)(F)F)ccc2C(F)(F)F)n1CCC1CC1` [Example 290, 5-(2,5-Bis-trifluoromethyl-phenyl)-1-(2-cyclopropyl-ethyl)-2-methyl-1H-pyrrole-3-carboxylic acid ((1R,2R)-2-hydroxy-cyclohexyl)-amide] had an IC50 of under 2000 nM. The compound `Cc1ccc(C(F)(F)F)cc1-c1cc(C(=O)N[C@@H]2CCCC[C@H]2O)c(C)n1CC1CCCCC1` [Example 301, Cyclohexylmethyl-2-methyl-5-(2-methyl-5-trifluoromethyl-phenyl)-1H-pyrrole-3-carboxylic acid ((1R,2R)-2-hydroxy-cyclohexyl)-amide] displayed an IC50 of under 2000 nM.
